The test system of assay [1] is primary human omental adipocytes. Put plainly: Lipolysis in human omental adipocytes. The format is cell-based. The conditions noted are these: NG-497 40 µM. Here is the method: Fig. S5: Effect of NG-497 on lipolysis in human omental adipocytes. Omental preadipocytes were obtained from Zen-Bio and differentiated into adipocytes in 96-well trays according to the manufacturer's instructions (OP-F-SL, ZenBio). Cells were then labeled with [9,10-3H] oleic acid (1µCi/well) in full medium for 12 h, washed, and preincubated for 1 h with NG-497 (40 µM) or DMSO (carrier) as a control. Subsequently, the medium was replaced with DMEM containing 2% FA-free BSA and basal as well as Forskolin-stimulated release of radioactivity was monitored in the presence or absence of NG-497. After a 4 h incubation period, cells were lysed in NaOH/SDS (0.3 M/0.1%) and cell-associated radioactivity was determined by liquid scintillation.
Cell-associated radioactivity at time-point 0 (pulse) was calculated as sum of the radioactivity detected in medium and cells after the 4 h chase. The release of fatty acids is shown as % of cell-associated radioactivity.
In the presence of Forskolin, cells lost ~ 20% of the
(b) Time course of FA release during the 4 h chase period. NG-497 reduced basal lipolysis by ~50% and extinguished Forskolin-stimulated lipolysis. Data are presented as mean ± S.D (n = 4). Statistical significance was determined via ANOVA followed by Bonferroni post hoc test (***, p < 0.001).
(1 picture or pasted object on this page, not shown here)

The target of assay [2] is T1, mouse ATGL I69F/T93I/C97F/T146G quadruple mutant (Mus musculus, UniProt Q8BJ56, C97F/I69F/T146G/T93I).
T1 construct: host or cells: Expi293 cells, cell lysate
Put plainly: TAG hydrolase assay, humanized mouse ATGL variants. The format is biochemical. The conditions noted are these: I69F/T93I/C97F/T146G quadruple mutant of mouse ATGL. From the text: (§1) According to our 3D model, aa T93 and C97 are located in close spatial proximity to I69. […] According to our 3D models, the overall topologies of the minimal active domains of mouse and human ATGL are identical, with S47 and D166 as active site residues in close spatial proximity (depicted as green sticks, Figure 6d,f). Residues S10–L178 (depicted in blue for mouse and pink for human) build a relatively compact half of the protein, while residues K179–L254 (depicted in gray) are less compact. The minimal active domain of both mouse and human ATGL is predicted to have a large, two-pronged fork cavity. The “left,” shallow prong is formed mainly by residues S10–L17 and S170–L254. The “right,” deeper prong is formed by five different helices (depicted in light blue and pink for mouse and human ATGL, respectively). The first helix is assembled by the N-terminal residues G16-E31. […] form three other helices and residues L137–F147 assemble a short helix with an adjacent unstructured stretch. In the orientation shown in Figure 6d,f, the active site is located in the middle part of the cavity connecting both prongs to the exterior. I69, C97, T146, and their human counterparts F69, F97, and G146, are all located in the right prong of the cavity. T(G)146 is located near the active site, while I(F)69 and C(F)97 are located on the opposite side of the cavity in close spatial proximity (Figure 6e,g). Our 3D homology models indicate that these residues change the widths and depths of the right prong, which can explain their crucial contribution to inhibitor selectivity and efficacy.
(§2) Figure 6 Identification of the molecular scaffold determining species selectivity. (a) Schematic view of mouse ATGL variants, which are sensitive to NG-497 inhibition. Humanized aa are indicated in red and nonidentical aa are indicated in dark blue. (b) Dose-dependent inhibition of the I69F/T146G double mutant, the I69F/T93I/C97F/T146G quadruple mutant, and human ATGL. (c) Dose-dependent inhibition of triple mutants I69F/T93I/T146G and I69F/C97F/T146G, and human ATGL. IC50 values are shown in the insets. […]

Assay [3] concerns the target T2, mouse ATGL triple mutant I69F/C97F/T146G (Mus musculus, UniProt Q8BJ56, C97F/I69F/T146G).
T2 construct: host or cells: Expi293 cells, cell lysate
Put plainly: TAG hydrolase assay, humanized mouse ATGL variants. The format is biochemical. The conditions noted are these: I69F/C97F/T146G triple mutant of mouse ATGL.
Source text: as §1, §2

Assay [4] deals with T3, mouse ATGL triple mutant I69F/T93I/T146G (Mus musculus, UniProt Q8BJ56, I69F/T146G/T93I).
T3 construct: host or cells: Expi293 cells, cell lysate
Put plainly: TAG hydrolase assay, humanized mouse ATGL variants. The format is biochemical. The conditions noted are these: I69F/T93I/T146G triple mutant of mouse ATGL.
Source text: as §1, §2

Consider one compound from article PMC9011347, “Small-Molecule Inhibitors Targeting Lipolysis in Human Adipocytes” (Journal of the American Chemical Society, 2022).

The IC50 is the concentration needed to halve the response being measured. Low values mean greater potency in that assay, high ones weaker potency in that assay.

T1 sequence (Q8BJ56 whole entry I69F/T93I/C97F/T146G): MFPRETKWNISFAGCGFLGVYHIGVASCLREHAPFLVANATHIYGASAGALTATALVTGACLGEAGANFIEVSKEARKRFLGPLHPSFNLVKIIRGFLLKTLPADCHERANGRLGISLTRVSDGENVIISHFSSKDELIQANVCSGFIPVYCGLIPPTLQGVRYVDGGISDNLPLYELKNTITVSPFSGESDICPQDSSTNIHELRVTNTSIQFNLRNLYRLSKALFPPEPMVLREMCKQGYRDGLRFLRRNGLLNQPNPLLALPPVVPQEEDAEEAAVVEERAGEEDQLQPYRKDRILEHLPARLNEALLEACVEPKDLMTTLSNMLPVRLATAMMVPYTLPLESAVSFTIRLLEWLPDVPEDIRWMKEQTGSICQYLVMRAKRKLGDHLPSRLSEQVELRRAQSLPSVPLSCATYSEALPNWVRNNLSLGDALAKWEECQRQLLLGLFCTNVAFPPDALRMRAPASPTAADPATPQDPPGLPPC
T2 sequence (Q8BJ56 whole entry I69F/C97F/T146G): as the sequence (Q8BJ56 whole entry I69F/T93I/C97F/T146G) above, with I93T counted along it
T3 sequence (Q8BJ56 whole entry I69F/T93I/T146G): as the sequence (Q8BJ56 whole entry I69F/T93I/C97F/T146G) above, with F97C counted along it

Turning to `CCOc1ccc(-c2cc(OC)cc(C(=O)OC(C)C)n2)cc1` [NG-497], the “Forskolin-induced loss of cell-associated radiolabel (~ 20%)” value in assay [1] (4 h) is “completely prevented”. Besides, the “Forskolin-induced TAG degradation and FA release (Forskolin-stimulated lipolysis)” value in assay [1] (4 h chase) is on record as “extinguished”. In addition, in assay [1] (4 h chase), the “reduction of basal lipolysis” value was ~ 50%. Also, the half-maximal inhibitory concentration (IC50) is 1600 ± 100 nM in assay [2], 1000 nM in assay [3] and 9300 nM in assay [4].
